Experiment: Safety and tolerability
Type: in vivo, human
[1] = 5 mg QD 14 days, healthy adults, 8 evaluable
[2] = 15 mg QD 14 days, healthy adults, 8 evaluable
[3] = 50 mg QD 14 days, healthy adults, 8 evaluable
[4] = 50 mg QD 14 days, healthy older subjects, 10 evaluable
[5] = 125 mg QD 14 days, healthy adults, 12 evaluable
[6] = 125 mg QD 14 days, healthy older subjects, 8 evaluable
[7] = 275 mg QD 14 days, healthy adults, 9 evaluable
[8] = single 3 mg, healthy adults, 5 evaluable
[9] = single 12 mg, healthy adults, 6 evaluable
[10] = single 40 mg, healthy adults, 6 evaluable
[11] = single 160 mg, healthy adults, 6 evaluable
[12] = single 200 mg fed, healthy adults, 6 evaluable
[13] = single 200 mg, healthy adults, 6 evaluable
[14] = single 400 mg, healthy adults, 6 evaluable
[15] = single 540 mg, healthy adults, 6 evaluable
[16] = studies B8271001 and B8271004 overall

## C[C@H]1C[C@H]2CSC(N)=N[C@@]2(c2nc(NC(=O)c3ccc(OC(F)F)cn3)cs2)CO1 [PF-06751979]
[1]
  Back pain, all-causality: 0
  Fatigue (MedDRA preferred term), all-causality: 0
  Headache (MedDRA preferred term), all-causality: 0
  Hepatic enzyme increased, all-causality: 0
  Insomnia, all-causality: 0
  Musculoskeletal discomfort, all-causality: 0
  Number of AEs, all-causality treatment-emergent: 1 (1)
  Number of AEs, treatment related: 1 (1)
  Number of subjects with AEs, all-causality: 1 (1)
  Number of subjects with AEs, treatment related: 1 (1)
  Number of subjects with SAEs: 0
  Number of subjects with discontinuation due to AEs: 0
  Number of subjects with severe AEs: 0
  Number of subjects with temporary discontinuation or dose reduction due to AEs: 0
  Paresthesia, all-causality: 0
  Procedural pain, all-causality: 0
[2]
  Back pain, all-causality: 0
  Fatigue (MedDRA preferred term), all-causality: 0
  Headache (MedDRA preferred term), all-causality: 1 (1)
  Headache, treatment related: 1 (1)
  Hepatic enzyme increased, all-causality: 1 (1)
  Hepatic enzyme increased, treatment related: 1 (1)
  Insomnia, all-causality: 0
  Musculoskeletal discomfort, all-causality: 0
  Number of AEs, all-causality treatment-emergent: 2 (2)
  Number of AEs, treatment related: 2 (2)
  Number of subjects with AEs, all-causality: 2 (2)
  Number of subjects with AEs, treatment related: 2 (2)
  Number of subjects with SAEs: 0
  Number of subjects with discontinuation due to AEs: 0
  Number of subjects with severe AEs: 0
  Number of subjects with temporary discontinuation or dose reduction due to AEs: 0
  Paresthesia, all-causality: 0
  Procedural pain, all-causality: 0
15 mg QD, Day 21
  ALT peak, one subject: 7.7 ×ULN
  AST peak, one subject: 5.6 ×ULN
[3]
  Back pain, all-causality: 0
  Fatigue (MedDRA preferred term), all-causality: 0
  Headache (MedDRA preferred term), all-causality: 0
  Hepatic enzyme increased, all-causality: 0
  Insomnia, all-causality: 0
  Musculoskeletal discomfort, all-causality: 0
  Number of AEs, all-causality treatment-emergent: 1 (1)
  Number of AEs, treatment related: 1 (1)
  Number of subjects with AEs, all-causality: 1 (1)
  Number of subjects with AEs, treatment related: 1 (1)
  Number of subjects with SAEs: 0
  Number of subjects with discontinuation due to AEs: 0
  Number of subjects with severe AEs: 0
  Number of subjects with temporary discontinuation or dose reduction due to AEs: 0
  Paresthesia, all-causality: 0
  Procedural pain, all-causality: 0
[4]
  Abnormal dreams, all-causality: 2 (2)
  Abnormal dreams, treatment related: 2 (2)
  Dizziness, all-causality: 1
  Dizziness, treatment related: 0
  Fatigue (MedDRA preferred term), all-causality: 1 (1)
  Fatigue, treatment related: 1 (1)
  Headache (MedDRA preferred term), all-causality: 1
  Headache, treatment related: 0
  Number of AEs, all-causality treatment-emergent: 15
  Number of AEs, treatment related: 9
  Number of subjects with AEs, all-causality: 7
  Number of subjects with AEs, treatment related: 6
  Number of subjects with SAEs: 0
  Number of subjects with discontinuation due to AEs: 0
  Number of subjects with severe AEs: 0
  Number of subjects with temporary discontinuation or dose reduction due to AEs: 0
[5]
  Back pain, all-causality: 2
  Back pain, treatment related: 0
  Fatigue (MedDRA preferred term), all-causality: 2 (2)
  Fatigue, treatment related: 2 (2)
  Headache (MedDRA preferred term), all-causality: 3
  Headache, treatment related: 1
  Hepatic enzyme increased, all-causality: 1
  Hepatic enzyme increased, treatment related: 0
  Insomnia, all-causality: 1 (1)
  Insomnia, treatment related: 1 (1)
  Musculoskeletal discomfort, all-causality: 3
  Musculoskeletal discomfort, treatment related: 0
  Number of AEs, all-causality treatment-emergent: 22
  Number of AEs, treatment related: 6
  Number of subjects with AEs, all-causality: 10
  Number of subjects with AEs, treatment related: 4
  Number of subjects with SAEs: 0
  Number of subjects with discontinuation due to AEs: 0
  Number of subjects with severe AEs: 0
  Number of subjects with temporary discontinuation or dose reduction due to AEs: 0
  Paresthesia, all-causality: 1
  Paresthesia, treatment related: 0
  Procedural pain, all-causality: 2
  Procedural pain, treatment related: 0
[6]
  Abnormal dreams, all-causality: 0
  Dizziness, all-causality: 0
  Fatigue (MedDRA preferred term), all-causality: 1 (1)
  Fatigue, treatment related: 1 (1)
  Headache (MedDRA preferred term), all-causality: 1 (1)
  Headache, treatment related: 1 (1)
  Number of AEs, all-causality treatment-emergent: 11
  Number of AEs, treatment related: 7
  Number of subjects with AEs, all-causality: 6
  Number of subjects with AEs, treatment related: 5
  Number of subjects with SAEs: 0
  Number of subjects with discontinuation due to AEs: 0
  Number of subjects with severe AEs: 0
  Number of subjects with temporary discontinuation or dose reduction due to AEs: 0
[7]
  Back pain, all-causality: 0
  Fatigue (MedDRA preferred term), all-causality: 0
  Headache (MedDRA preferred term), all-causality: 1
  Headache, treatment related: 0
  Hepatic enzyme increased, all-causality: 1 (1)
  Hepatic enzyme increased, treatment related: 1 (1)
  Insomnia, all-causality: 0
  Musculoskeletal discomfort, all-causality: 2
  Musculoskeletal discomfort, treatment related: 0
  Number of AEs, all-causality treatment-emergent: 18
  Number of AEs, treatment related: 13
  Number of subjects with AEs, all-causality: 8
  Number of subjects with AEs, treatment related: 7
  Number of subjects with SAEs: 0
  Number of subjects with discontinuation due to AEs: 1 (1)
  Number of subjects with discontinuation due to AEs, treatment related: 1 (1)
  Number of subjects with severe AEs: 0
  Number of subjects with temporary discontinuation or dose reduction due to AEs: 0
  Paresthesia, all-causality: 1 (1)
  Paresthesia, treatment related: 1 (1)
  Procedural pain, all-causality: 0
275 mg QD, 6 h post-dose on Day 11, deemed treatment related
  Rash leading to discontinuation, one subject: moderate maculopapular rash
275 mg QD, Day 14, after discontinuation on Day 11
  AST elevation, one subject: 1.15 x ULN
[8]
  Fatigue (MedDRA preferred term), all-causality: 0
  Headache (MedDRA preferred term), all-causality: 0
  Number of AEs, all-causality treatment-emergent: 1
  Number of AEs, treatment related: 0
  Number of subjects with AEs, all-causality: 1
  Number of subjects with AEs, treatment related: 0
  Number of subjects with SAEs: 0
  Number of subjects with discontinuation due to AEs: 0
  Number of subjects with severe AEs: 0
  Number of subjects with temporary discontinuation or dose reduction due to AEs: 0
[9]
  Fatigue (MedDRA preferred term), all-causality: 0
  Headache (MedDRA preferred term), all-causality: 0
  Number of AEs, all-causality treatment-emergent: 0
  Number of subjects with AEs, all-causality: 0
  Number of subjects with SAEs: 0
  Number of subjects with discontinuation due to AEs: 0
  Number of subjects with severe AEs: 0
  Number of subjects with temporary discontinuation or dose reduction due to AEs: 0
[10]
  Fatigue (MedDRA preferred term), all-causality: 0
  Headache (MedDRA preferred term), all-causality: 0
  Number of AEs, all-causality treatment-emergent: 0
  Number of subjects with AEs, all-causality: 0
  Number of subjects with SAEs: 0
  Number of subjects with discontinuation due to AEs: 0
  Number of subjects with severe AEs: 0
  Number of subjects with temporary discontinuation or dose reduction due to AEs: 0
[11]
  Fatigue (MedDRA preferred term), all-causality: 0
  Headache (MedDRA preferred term), all-causality: 0
  Number of AEs, all-causality treatment-emergent: 0
  Number of subjects with AEs, all-causality: 0
  Number of subjects with SAEs: 0
  Number of subjects with discontinuation due to AEs: 0
  Number of subjects with severe AEs: 0
  Number of subjects with temporary discontinuation or dose reduction due to AEs: 0
[12]
  Fatigue (MedDRA preferred term), all-causality: 1 (1)
  Fatigue, treatment related: 1 (1)
  Headache (MedDRA preferred term), all-causality: 0
  Number of AEs, all-causality treatment-emergent: 7
  Number of AEs, treatment related: 4
  Number of subjects with AEs, all-causality: 4 (4)
  Number of subjects with AEs, treatment related: 4 (4)
  Number of subjects with SAEs: 0
  Number of subjects with discontinuation due to AEs: 0
  Number of subjects with severe AEs: 0
  Number of subjects with temporary discontinuation or dose reduction due to AEs: 0
[13]
  Fatigue (MedDRA preferred term), all-causality: 2 (2)
  Fatigue, treatment related: 2 (2)
  Headache (MedDRA preferred term), all-causality: 0
  Number of AEs, all-causality treatment-emergent: 5
  Number of AEs, treatment related: 3
  Number of subjects with AEs, all-causality: 3 (3)
  Number of subjects with AEs, treatment related: 3 (3)
  Number of subjects with SAEs: 0
  Number of subjects with discontinuation due to AEs: 0
  Number of subjects with severe AEs: 0
  Number of subjects with temporary discontinuation or dose reduction due to AEs: 0
[14]
  Fatigue (MedDRA preferred term), all-causality: 0
  Headache (MedDRA preferred term), all-causality: 1 (1)
  Headache, treatment related: 1 (1)
  Number of AEs, all-causality treatment-emergent: 5 (5)
  Number of AEs, treatment related: 5 (5)
  Number of subjects with AEs, all-causality: 2 (2)
  Number of subjects with AEs, treatment related: 2 (2)
  Number of subjects with SAEs: 0
  Number of subjects with discontinuation due to AEs: 0
  Number of subjects with severe AEs: 0
  Number of subjects with temporary discontinuation or dose reduction due to AEs: 0
[15]
  Fatigue (MedDRA preferred term), all-causality: 0
  Headache (MedDRA preferred term), all-causality: 2 (2)
  Headache, treatment related: 2 (2)
  Number of AEs, all-causality treatment-emergent: 10
  Number of AEs, treatment related: 6
  Number of subjects with AEs, all-causality: 6
  Number of subjects with AEs, treatment related: 3
  Number of subjects with SAEs: 0
  Number of subjects with discontinuation due to AEs: 0
  Number of subjects with severe AEs: 0
  Number of subjects with temporary discontinuation or dose reduction due to AEs: 0
Studies B8271001 and B8271004
  Findings in ECGs or vital signs: no clinically meaningful findings
[16]
  SAEs or deaths: no SAEs or deaths were reported
  Severity of TEAEs: mild to moderate
